{"source": "patent US5366983A", "about": "“Use of quaternary ammonium compounds to remove salmonella contamination from meat products” (The Board of Trustees of The University of Arkansas, priority 1992, dated 1994)", "key": {"[1]": {"test_system": "Salmonella typhimurium ATCC 14028", "assay": "Effect on viability of Salmonella in suspension (Tables D-1 to D-3)", "assay_type": "cell-based", "settings": "Table D-1", "method_in_brief": "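Bactericidal activity against Salmonella measured in suspension; EC50 derived by nonlinear regression of kill versus molar concentration. Na2-EDTA and EGTA dissolved and diluted in 0.04 M PPB; EGTA heated 15 minutes at 80° C., adjusted to pH 7.0 with NaOH, filter-sterilized.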"}, "[2]": {"test_system": "Salmonella typhimurium TA100", "assay": "Salmonella reversion assay, TA100", "protocol": "(§1) Test strains TA98 and TA100 were obtained from Bruce N. Ames (University of California, Berkley, Calif.). Mutagenicities were determined both in the absence of and in the presence of a mammalian liver S9 activating system. S9 is the 9000×g supernatant prepared from liver homogenates from Aroclor 1254 stimulated male Sprague Dawley rats. The S9 was purchased from Molecular Toxicology, Inc. (Anapolis, Md.).\n(§2) Bacterial broth cultures were grown overnight at 37° with shaking in Oxoid Broth #2. For assays in the absence of S9, a 0.5 ml aliquot of 100 mM Sodium Phosphate Buffer, pH 7.4, was added to sterile 13×100 mm capped culture tubes. For assays in the presence of S9, a 0.5 ml aliquot of 10% S9 mix was added. The S9 mix consisted of 8 mM magnesium chloride, 33 mM potassium chloride, 5 mM glucose-6-phosphate, 4 mM NADP, 100 mM sodium phosphate, pH 7.4 and S9 in a concentration of approximately 1.46 mg protein/ml.\n(§3) The culture tubes were placed in an ice bath and 0.1 ml of the bacterial suspension and 0.1 ml of a DMSO solution of the test compound were added. The mixture was vortexed gently and incubated at 37° for 20 minutes with shaking in a water bath. Molten top agar (2.0 ml) containing 0.5 mM histidine HCl and 0.5 mM biotin were added, and the mixture was vortexed gently and poured onto a minimal glucose plate. After allowing the agar to solidify, the plates were inverted and placed in a 37° incubator in the dark for 48 hours. The revertant (mutant) colonies were counted and the background lawn was examined on all plates. A response that was two times that of the DMSO solvent control was considered a positive response."}, "[3]": {"test_system": "Salmonella typhimurium on chicken skin", "assay": "Prevention of attachment of Salmonella on excised chicken skin (Table F5)", "protocol": "To determine the ability of surfactants to inhibit attachment or produce detachment of Salmonella, the following experiment was conducted. A hole was bored into the bottom of a 150 ml specimen cup. Chicken skin was excised from a drum stick and then placed over the cap of the specimen cup, and then the cap was screwed on. S. typhimurium was diluted 1:5000 with PBS or a surfactant. The surfactants were diluted appropriately. The skin was then inoculated with the solution containing the S. typhimurium and the surfactant for 30 minutes at room temperature.\nFollowing incubation, the skin was washed. The rinse water was diluted appropriately in PBS and then plated onto XLD pour plates. The S. typhimurium was counted and reported as CFU/ml. The skin was swabbed so as to remove any remaining S. typhimurium using a nitroellulose lift and the CFU's/ml on the lift were also counted."}, "[4]": {"test_system": "Salmonella attachment to human buccal epithelial cells", "settings": "count on treated cell / untreated cell", "quoted_text": "The Salmonella suspension and the human buccal epithelial cells were prepared according to the method described in the detachment experiments of Example 1, except that only the control buccal epithelial cells were suspended in PBS and washed twice at 4500 rpm for 10 minutes. […] The exposure of the buccal epithelial cells to the Salmonella suspension and all subsequent procedures were performed according to the method described in Example 1."}, "[5]": {"test_system": "Salmonella typhimurium TA98", "assay": "Salmonella reversion assay, TA98", "protocol": "as §1, §2, §3"}}, "note": "Several values for one entry are separate records, joined by “and”; a condition that tells them apart may be missing. Equal values may be shown once. Read-outs that look alike come from different tables or passages of the source."}
{"smiles": "CCCCCCCCCCCCCCCC[n+]1ccccc1", "note": "[CPC, cetylpyridinium chloride]", "values": [{"measurement": "bacterial viability", "setting": "[1]; 20 ug/ml", "value": "1.84 ± 0.087 × 10^8 CFU/ml"}, {"measurement": "bacterial viability", "setting": "[1]; 22.5 ug/ml", "value": "9.07 ± 2.16 × 10^7 CFU/ml"}, {"measurement": "bacterial viability", "setting": "[1]; 25 ug/ml", "value": "5.15 ± 1.18 × 10^6 CFU/ml"}, {"measurement": "Revertants/plate", "setting": "[2]; TA100, +S9, 5 μg/plate", "value": "129 ± 14", "unit": "Revertants/plate"}, {"measurement": "Revertants/plate", "setting": "[2]; TA100, +S9, 10 μg/plate", "value": "136 ± 11", "unit": "Revertants/plate"}, {"measurement": "Revertants/plate", "setting": "[2]; TA100, +S9, 20 μg/plate", "value": "126 ± 14", "unit": "Revertants/plate"}, {"measurement": "Revertants/plate", "setting": "[2]; TA100, +S9, 40 μg/plate", "value": "125 ± 5", "unit": "Revertants/plate"}, {"measurement": "Revertants/plate", "setting": "[2]; TA100, +S9, 50 μg/plate", "value": "126 ± 10", "unit": "Revertants/plate"}, {"measurement": "Revertants/plate", "setting": "[2]; TA100, -S9, 1 μg/plate", "value": "98 ± 5", "unit": "Revertants/plate"}, {"measurement": "Revertants/plate", "setting": "[2]; TA100, -S9, 5 μg/plate", "value": "133 ± 5", "unit": "Revertants/plate"}, {"measurement": "Revertants/plate", "setting": "[2]; TA100, -S9, 10 μg/plate", "value": "130 ± 9", "unit": "Revertants/plate"}, {"measurement": "mutagenicity (in words)", "setting": "[2]; TA100, absence of S9, low concentrations", "value": "nonmutagenic"}, {"measurement": "mutagenicity and cytotoxicity (in words)", "setting": "[2]; TA100, presence of S9", "value": "neither mutagenic nor cytotoxic"}, {"measurement": "CFU/ml on XLD agar", "setting": "[3]", "value": 20}, {"measurement": "Nitrocellulose lift (# of colonies)", "setting": "[3]; skin, 30 minutes at room temperature", "value": "4 # of colonies"}, {"measurement": "Counts/con", "setting": "[4]; 2.5 mcg/mL", "value": "62/71"}, {"measurement": "Counts/con", "setting": "[4]; 5 mcg/mL", "value": "41/71"}, {"measurement": "Counts/con", "setting": "[4]; 10 mcg/mL", "value": "26/70 and 24/74"}, {"measurement": "Counts/con", "setting": "[4]; 100 mcg/mL", "value": "30/70 and 23/74"}, {"measurement": "Revertants/plate", "setting": "[5]; TA98, +S9, 1 μg/plate", "value": "25 ± 2", "unit": "Revertants/plate"}, {"measurement": "Revertants/plate", "setting": "[5]; TA98, +S9, 5 μg/plate", "value": "28 ± 1", "unit": "Revertants/plate"}, {"measurement": "Revertants/plate", "setting": "[5]; TA98, +S9, 10 μg/plate", "value": "25 ± 3", "unit": "Revertants/plate"}, {"measurement": "Revertants/plate", "setting": "[5]; TA98, +S9, 20 μg/plate", "value": "28 ± 2", "unit": "Revertants/plate"}, {"measurement": "Revertants/plate", "setting": "[5]; TA98, +S9, 40 μg/plate", "value": "30 ± 1", "unit": "Revertants/plate"}, {"measurement": "Revertants/plate", "setting": "[5]; TA98, +S9, 50 μg/plate", "value": "35 ± 6", "unit": "Revertants/plate"}, {"measurement": "Revertants/plate", "setting": "[5]; TA98, -S9, 1 μg/plate", "value": "24 ± 3", "unit": "Revertants/plate"}, {"measurement": "Revertants/plate", "setting": "[5]; TA98, -S9, 5 μg/plate", "value": "18 ± 4", "unit": "Revertants/plate"}, {"measurement": "mutagenicity (in words)", "setting": "[5]; TA98, absence of S9, low concentrations", "value": "nonmutagenic"}, {"measurement": "mutagenicity and cytotoxicity (in words)", "setting": "[5]; TA98, presence of S9", "value": "neither mutagenic nor cytotoxic"}]}
